This assay addresses T1, glOTC (Giardia duodenalis, UniProt O76458).
T1 sequence (O76458 1-327): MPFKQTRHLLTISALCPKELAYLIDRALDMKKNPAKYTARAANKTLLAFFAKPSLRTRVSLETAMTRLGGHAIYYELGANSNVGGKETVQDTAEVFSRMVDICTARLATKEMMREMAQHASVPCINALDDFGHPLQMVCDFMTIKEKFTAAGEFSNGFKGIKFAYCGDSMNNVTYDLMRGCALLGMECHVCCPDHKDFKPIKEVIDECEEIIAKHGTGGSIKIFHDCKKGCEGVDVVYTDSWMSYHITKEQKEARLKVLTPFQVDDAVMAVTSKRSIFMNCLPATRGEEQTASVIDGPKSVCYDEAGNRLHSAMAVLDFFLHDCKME
In words: coupled spectrophotometric assay at […] nm. The assay is classed as biochemical.

For orientation: Ki means a dissociation constant, usually derived from enzyme kinetics or from competition with a known ligand. The low end stands for tighter binding, the high end for weaker binding.

The molecule `N[C@@H](CCCNC(=O)CP(=O)(O)O)C(=O)O` [PALO, N-phosphonoacetyl-L-ornthine] registered a Ki of 25 ± 9 nM.

For the origin of these results see PMC2753476 (Proteins, 2009).
